Reference: article PMC9369311, “Examination of Intracellular GPCR-Mediated Signaling with High Temporal Resolution” (International Journal of Molecular Sciences, 2022)
Several values for one entry are separate records, joined by “and”; a condition that tells them apart may be missing. Equal entries are not always repeated. Entries after “also recorded” stand apart in the source; their conditions may differ.

Columns and labels:
CNGA2 channel = molecular target: T1, CNGA2 channel (Bos taurus, UniProt Q03041, T537M); test: Stopped-flow flash photolysis of caged cAMP in Fluo-4-loaded flpTM-DmOctβ1 cells; type: cell-based, bovine; conditions: for cAMP released by photolysis: based on quantum yield
T1 construct: host or cells: HEK293 flpIn cells (Invitrogen #750-07)
T1 sequence (Q03041 1-663 T537M): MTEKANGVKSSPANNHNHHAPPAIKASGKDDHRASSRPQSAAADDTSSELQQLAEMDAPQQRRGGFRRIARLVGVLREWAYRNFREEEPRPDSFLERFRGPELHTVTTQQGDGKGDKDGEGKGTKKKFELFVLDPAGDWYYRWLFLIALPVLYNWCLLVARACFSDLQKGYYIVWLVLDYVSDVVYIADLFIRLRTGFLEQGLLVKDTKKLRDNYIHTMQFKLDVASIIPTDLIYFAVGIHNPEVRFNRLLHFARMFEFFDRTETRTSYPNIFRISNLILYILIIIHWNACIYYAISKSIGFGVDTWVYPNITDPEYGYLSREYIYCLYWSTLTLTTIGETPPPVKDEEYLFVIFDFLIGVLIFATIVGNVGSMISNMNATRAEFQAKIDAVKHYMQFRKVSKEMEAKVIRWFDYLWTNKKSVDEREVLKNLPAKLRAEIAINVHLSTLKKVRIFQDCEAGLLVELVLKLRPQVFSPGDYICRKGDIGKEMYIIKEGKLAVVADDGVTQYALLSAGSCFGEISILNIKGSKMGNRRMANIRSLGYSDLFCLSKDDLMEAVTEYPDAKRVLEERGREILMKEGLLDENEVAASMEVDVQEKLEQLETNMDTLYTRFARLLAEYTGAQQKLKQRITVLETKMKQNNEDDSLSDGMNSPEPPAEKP
Source text: Neutral density filters that regulate the transmission of light (5%, 25%, 50%, 80%, 100%) were installed, allowing application of different light intensities.
As an integral component of the flpTM-DmOctβ1 cell line, the cAMP-sensitive CNG channel (flpTM; see [32]) enables the detection of cellular cAMP dynamics via mediating cAMP-dependent opening of the channel pore and resulting in Ca^2+ influx. […] A (7-diethylaminocoumarin-4-yl)methyl (DEACM)-modified cAMP was used. The FlpTM-DmOctβ1 cells were loaded with Fluo-4 and DEACM-cAMP. For the stopped-flow measurements, the cells were mixed with ES in the cuvette and after 2 s, a UV-flash was triggered for 10 ms to release cAMP. The fluorescence signals were monitored for 12 s. The time point when triggering the light flash was defined as t = 0. Different concentrations of DEACM-cAMP were used (10 µM, 30 µM, 50 µM, and 100 µM) for loading cells. […] In successive experiments, different light intensities were applied (5%, 25%, 50%, 80%, 100%). The experiments were performed in the presence of 100 µM IBMX to avoid fluctuations in cAMP due to cell-endogenous phosphodiesterases.
For the photolysis of the caged compounds with ultraviolet (UV)-light, a Xe-flash lamp (JML-C2; Rapp Opto Electronics, Wedel, Germany) was coupled to the cuvette via an UV-light permeable light guide (Schott). A UV-2 interference filter was placed between the Xe-flash lamp and light guide to select for the UV-light needed for the photolysis of the caged compounds. Additionally, it prevents the photomultiplier from being hit by light that is able to pass the emission filter. The maximal energy of one light flash at the surface of the cuvette was 107 mJ·cm^−2 (set to C2 and 200 V). Neutral density (ND) filters (AHF Analysentechnik, Tübingen, Germany) could be installed between the interference filter and the Xe-flash lamp to regulate the intensity of the UV-light applied to the cuvette. To maximize the detection of the emission light, a test solution containing 50 nM of fluorescein in ES was added to the cuvette and the light guide was fixed to the Xe/Hg-lamp at a position where the photomultiplier detected maximal intensity.

[1] = tested on: cell endogenous adenylyl cyclases; test: Ca2+ fluorimetry in plate reader (96 MWP), flpTM-DmOctβ1 cells stimulated with NKH477; type: cell-based, human; conditions: for logEC50 ± SD: given as logEC50 (negative)
Procedure: In another series of experiments, DmOctβ1 receptor-expressing cell lines were incubated with NKH477, a water soluble agonist of membrane bound adenylyl cyclases, the downstream effectors in DmOctβ1 signaling. Before stimulating the adenylyl cyclase activity, NKH477 has to cross the cell membrane and then binds to the catalytic domain of the enzyme. As before, the flpTM-DmOctβ1 cells were seeded in 96 MWPs and loaded with Fluo-4. In parallel, cells stably co-transfected with GCaMP3.0 were examined (flpTM-DmOctβ1-GCaMP3.0). All of the measurements were performed in the presence of 100 µM IBMX. […] In comparison to the octopamine-evoked responses, the EC50 values for NKH477 differed strongly, with values in the nanomolar range for octopamine and in the micromolar range for NKH477, but confirming the previous data on the octopamine receptors and adenylyl cyclases, respectively. […] Whether this effect was due to differences in the cytosolic distribution of both Ca^2+ detectors and/or the spatial presence of adenylyl cyclase isoforms in membrane domains has not been experimentally addressed.
In this study, we made use of previously established stably transfected cell lines. Briefly, human embryonic kidney cells (HEK293; #85120602, ECACC, Porton Down, Salisbury, UK) were transfected with 10 µg of DmOctα1B receptor-encoding construct by a modified calcium phosphate method. The cell line constitutively expressing the DmOctα1B receptors was propagated in MEM+Glutamax medium containing 10% (v/v) fetal calf serum, 1% (v/v) non-essential amino acids, 1% (v/v) antibiotics/antimycotics, and […] Geneticin (all obtained from ThermoFisher Scientific/Gibco; Dreieich, Germany). A related human embryonic kidney 293-based cell line (HEK293; flpIn cells; Invitrogen/ThermoFisher Scientific; #750-07) that was transfected with a gene encoding a variant of the A2-subunit of the olfactory cyclic nucleotide-gated ion channel (CNG; [31]; flpTM cells, provided by Sibion Biosciences, Jülich, Germany) was transfected with 10 µg of DmOctβ1 receptor-encoding construct. The cell line constitutively expressing the CNG channels and DmOctβ1 receptors was named flpTM-DmOctβ1 and propagated in DMEM+Glutamax medium containing 10% (v/v) fetal calf serum, 1% (v/v) penicillin/streptomycin, and 100 µg/mL Hygromycin, as well as […] Geneticin (all obtained from ThermoFisher Scientific/Gibco). […]
To monitor the intracellular changes of Ca^2+, the cells stably transfected with the genetically encoded calcium indicator GCaMP3.0 (Tian et al., 2009) or loaded with the calcium-sensitive fluorescent dye Fluo-4-AM (Life Technologies/Thermo Fisher Scientific) were analyzed in the plate reader FLUOstar Omega (BMG Labtech, Ortenberg, Germany). […]

adenylyl cyclases = test: Stopped-flow Ca2+ fluorescence measurements, flpTM-DmOctβ1 cells, NKH477; type: cell-based, human
Procedure: In successive stopped-flow measurements, the flpTM-DmOctβ1 cells loaded with Fluo-4 were stimulated with increasing octopamine (1 nM–3 µM) and NKH477 (100 nM–300 µM) concentrations. The fluorescence intensities were monitored over 80 s and 100 s, respectively (Figure 4A1,B1). The fluorescence intensities increased and finally reached a plateau with increasing concentrations of both of the ligands. However, the saturating ligand concentrations differed strongly between octopamine (≥300 nM) and NKH477 (≥100 µM). By plotting the maximal changes in fluorescence (ΔF/F0) against ligand concentrations, concentration–response curves were generated and EC50 values were calculated (Figure 4C). […] As observed for the DmOctα1B cell lines (see Figure 3D), the signal response times of flpTM-DmOctβ1 cells were faster at higher ligand concentrations (Figure 4A2,B2). In Figure 4D, the time until the signals were detected (for details, see Materials and Methods, Section 4.4) are plotted for the ligand concentrations covering the calculated EC50 value (dynamic range) and for saturating concentrations (saturating range). The signal response times of the flpTM-DmOctβ1 cells for octopamine were in the range of 30 s (dynamic range) and 6 s (saturating range), whereas the signal detection upon NKH477 application was observed after 50 s (dynamic range) and 16 s (saturating range). The signal response times were about three- to five-fold faster at the saturating concentrations in comparison to the octopamine and NKH477 concentrations in the dynamic range.
As described for the Fluo-4-loaded flpTM-DmOctβ1 cells, similar experiments were performed with the flpTM-DmOctβ1-GCaMP3.0 cells (Figure 5). The cells were successively mixed with increasing concentrations of octopamine (30 pM–100 nM) or NKH477 (30 nM–100 µM) and the fluorescence intensities were recorded over 100 s. For both of the ligands, increasing ligand concentrations led to an increase in the fluorescence emission finally reaching a plateau (Figure 5A1,B1).
For the stopped-flow measurements, the SFM-400 system (BioLogic, Münster, Germany) was used. The main component of the stopped-flow setup is the SFM-400 module with four 10 mL syringes, which can be filled by external valves. The syringes are driven by step motors. The reactants can be mixed in three individual mixing chambers (M1–M3). The volume between M1 and M2 is 21 µL, and 31 µL between M2 and M3. The observation chamber is a quartz cuvette (FC-15) with a reaction volume of 31 µL, installed behind M3. To avoid fluctuations of the reaction mixture in the cuvette, which might lead to noisy and inconsistent signals, a hard stop valve located behind the cuvette can be closed after injection of the reactants. The stopped-flow module is controlled via a MPS-60 control unit (BioLogic). Data acquisition and operation of the system were performed with the Bio-Kine 32 v4.74 software (BioLogic).
The reactions in the cuvette were analyzed via the changes in the fluorescence. A 150 W Xe/Hg-lamp (ALX-220; BioLogic) was used as a light source for the excitation. The excitation light was guided via a light guide towards the cuvette. To determine the wavelength of the excitation light, a 482 nm bandpass filter (482/35 nm BrightLine® single-band bandpass filter; Semrock, Rochester, NY, USA) was used. A heat protection filter (3 mm; KG1, Schott; Mainz, Germany) was placed between the Xe/Hg-lamp and the excitation filter. The fluorescence was detected with a photomultiplier (PMS 200, BioLogic) installed rectangularly to the light path of the excitation light. Between the cuvette and the photomultiplier tube a 535 nm bandpass emission filter (XF3007 535AF35; Horiba, Oberursel, Germany) was placed to select for the emission light being detected by the photomultiplier. A voltage of 600 V was applied to the photomultiplier.
The fluorescence measurements were performed either directly with the cells expressing GCaMP3.0 or after loading the cells with Fluo-4-AM. […]

[2] = flpTM-DmOctβ1-GCaMP3.0 cells, 100 µM IBMX
[3] = flpTM-DmOctβ1 cells loaded with Fluo-4, 100 µM IBMX

SMILES: CCN(CC)c1ccc2c(COP3(=O)OC[C@H]4O[C@@H](n5cnc6c(N)ncnc65)[C@H](O)[C@@H]4O3)cc(=O)oc2c1 (stereo partly shown) [DEACM-cAMP]
- time from light flash to rise in fluorescence (Ca2+ signal) (CNGA2 channel; cells loaded with 10 µM DEACM-cAMP, light intensities of 80% and 100%, 10 ms flash, 100 µM IBMX): approximately 60 ms
- onset of Ca2+ signals after light flash (CNGA2 channel; cells loaded with 30 µM DEACM-cAMP, 10 ms flash, 100 µM IBMX): immediately after the light flash; also recorded: immediately after photolysis
- cAMP released by photolysis (CNGA2 channel; from 10 µM DEACM-cAMP): approximately 2 µM
- cAMP released by photolysis (CNGA2 channel; from 30 µM DEACM-cAMP): ~6 µM

SMILES: C=C[C@@]1(C)CC(=O)[C@]2(O)[C@@]3(C)[C@@H](O)CCC(C)(C)[C@@H]3[C@H](OC(=O)CCN(C)C)[C@H](OC(C)=O)[C@@]2(C)O1.Cl [NKH477]
- EC50 [1, 2]: 100 nM
- logEC50 ± SD [1, 2]: −6.91 ± 0.03
- EC50 [1, 3]: 4500 nM
- logEC50 ± SD [1, 3]: −5.34 ± 0.09
- Signal Response Time (adenylyl cyclases; dynamic range (concentrations around EC50), flpTM-DmOctβ1-GCaMP3.0 cells): 40 s
- Signal Response Time (adenylyl cyclases; dynamic range (concentrations around EC50), flpTM-DmOctβ1 cells loaded with Fluo-4): 50 s
- Signal Response Time (adenylyl cyclases; saturating concentration, flpTM-DmOctβ1-GCaMP3.0 cells, mean ± SEM): 13 s and 12.70 ± 0.52 s
- Signal Response Time (adenylyl cyclases; saturating concentration, flpTM-DmOctβ1 cells loaded with Fluo-4, mean ± SEM): 13.35 ± 0.82 s
- Signal Response Time (adenylyl cyclases; saturating ligand concentration, flpTM-DmOctβ1 cell lines, Fluo-4 and GCaMP3.0): 13 s
- EC50 (adenylyl cyclases; stopped-flow, flpTM-DmOctβ1-GCaMP3.0 cells, mean ± SEM): 2.1 µM and 2.12 µM
- saturating ligand concentration (adenylyl cyclases; stopped-flow, flpTM-DmOctβ1 cells loaded with Fluo-4): ≥ 100 µM
- EC50 (adenylyl cyclases; stopped-flow, flpTM-DmOctβ1 cells loaded with Fluo-4, mean ± SEM): 3.9 µM and 3.92 µM
